Source: US4859776A, “(S)-7-(3-aminopyrrolidin-1-yl)-1-(ortho, para-difluorophenyl)-1,4-dihydro-6-fluoro-4-oxo-1,8-naphthyridine-3-carb oxylic acid and method for its preparation” (Abbott Laboratories, priority 1988, dated 1989)

Key:
[1] = one enantiomeric form vs the other form; background statement; cited from earlier work
[2] = test system: P. Aeruginosa 5007; test: Mouse protection test, P. Aeruginosa 5007; type: in vivo; conditions: Pseudomonas aeruginosa
From the text: (§1) The differences in in vivo antibacterial activity of racemic (R,S) compound (A) versus the (S) enantiomeric form of compound (A) are shown in Table I. |POTENCY OF (A) IN MOUSE PROTECTION TESTS | ED50 (mg/kg/day)

[3] = test system: S. Aureus NCTC 10649; test: Mouse protection test, S. Aureus NCTC 10649; type: in vivo; conditions: Staphylococcus aureus
From the text: as §1

[4] = test system: E. Coli Juhl; test: Mouse protection test, E. Coli Juhl; type: in vivo; conditions: Escherichia coli
From the text: as §1

[5] = racemic mixture; J. Med. Chem., 29, 2363 (1986); cited from earlier work

Row | SMILES | activity in raising blood pressure, one enantiomeric form versus the other [1] | ED50 ([2]; oral) [mg/kg] | ED50 ([2]; sc, subcutaneous) [mg/kg] | ED50 ([3]; NCTC10649, oral) [mg/kg] | ED50 ([3]; NCTC10649, sc, subcutaneous) [mg/kg] | ED50 ([4]; oral) [mg/kg] | ED50 ([4]; sc, subcutaneous) [mg/kg] | antibacterial properties [5]
1 | CNCC(O)c1ccc(O)c(O)c1 (centres unmarked) [adrenalin] | over ten times more active | – | – | – | – | – | – | –
2 | N[C@H]1CCN(c2nc3c(cc2F)c(=O)c(C(=O)O)cn3-c2ccc(F)cc2F)C1 [(S)--(A), (S)-7-(3-aminopyrrolidin-1-yl)-1-(o,p-difluorophenyl)-1,4-dihydro-6-fluoro-4-oxo-1,8-naphthyridine-3-carboxylic acid] | – | 12.1 | 8.6 | 0.8 | 0.4 | 0.8 | 0.2 | –
3 | NC1CCN(c2nc3c(cc2F)c(=O)c(C(=O)O)cn3-c2ccc(F)cc2F)C1 (racemic) [(R,S)--(A), 7-(3-aminopyrrolidin-1-yl)-1-(o,p-difluorophenyl)-1,4-dihydro-6-fluoro-4-oxo-1,8-naphthyridine-3-carboxylic acid] | – | 16 | > 20 | 1 | 0.4 | 1.2 | 0.3 | has been shown to exhibit antibacterial properties
